The results in this text go back to PMC4138267 (Nature chemical biology, 2014).

Like-named read-outs stand apart in the source and are kept apart here.

Holding throughout (assay type): cell-based
In assay [1] the target is human D2 dopamine receptor (D2LR) (Homo sapiens, UniProt P14416). Put plainly: ERK1/2 phosphorylation assay, Flp-In CHO cells expressing D2LR. The conditions noted are these: for Logαβ: cooperativity with dopamine.
The target of assay [2] is N-terminal c-myc-tagged WT D2LR (Homo sapiens, UniProt P14416). The experiment in a line: ERK1/2 phosphorylation assay, Flp-In CHO cells, c-myc-tagged WT D2LR. The conditions noted are these: pERK1/2, interaction with dopamine.
Chain of N-terminal c-myc-tagged WT D2LR (P14416 whole entry): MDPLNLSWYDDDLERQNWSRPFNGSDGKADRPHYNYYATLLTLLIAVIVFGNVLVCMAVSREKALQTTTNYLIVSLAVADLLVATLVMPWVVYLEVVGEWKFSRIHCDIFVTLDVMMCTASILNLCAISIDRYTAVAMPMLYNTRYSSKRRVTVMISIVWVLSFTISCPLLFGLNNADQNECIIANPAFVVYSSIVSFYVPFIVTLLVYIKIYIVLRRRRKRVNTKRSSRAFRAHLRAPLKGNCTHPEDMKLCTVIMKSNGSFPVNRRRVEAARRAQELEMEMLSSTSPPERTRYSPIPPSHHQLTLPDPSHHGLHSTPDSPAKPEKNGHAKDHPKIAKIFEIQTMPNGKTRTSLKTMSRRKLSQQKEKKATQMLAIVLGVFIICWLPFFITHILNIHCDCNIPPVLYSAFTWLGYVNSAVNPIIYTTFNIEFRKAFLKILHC
Another assay concerns the target Val91^2.61Ala D2LR (Homo sapiens, UniProt P14416, V91A). The following applies: pERK1/2, interaction with dopamine.
Assay [3] concerns the target D2R dimer: WT D2R (protomer A) + D2-Asp114^3.32Ala-Gqi5 (protomer B) (Homo sapiens, UniProt P14416).
Assay [4] has as its target D2R dimer: WT D2R (protomer A) + D2R-Gqi5 fusion (protomer B) (UniProt P14416+P21279). Put plainly: Aequorin functional complementation assay, WT:WT pair. The following applies: WT:WT complement pair; 100 µM dopamine.
Setting [5] is: KB, pERK1/2, probe ligand dopamine.

Chain of human D2 dopamine receptor (D2LR) (P14416 whole entry): as above
Chain of D2R dimer: WT D2R (protomer A) + D2-Asp114^3.32Ala-Gqi5 (protomer B) (P14416 1-414 isoform P14416-2): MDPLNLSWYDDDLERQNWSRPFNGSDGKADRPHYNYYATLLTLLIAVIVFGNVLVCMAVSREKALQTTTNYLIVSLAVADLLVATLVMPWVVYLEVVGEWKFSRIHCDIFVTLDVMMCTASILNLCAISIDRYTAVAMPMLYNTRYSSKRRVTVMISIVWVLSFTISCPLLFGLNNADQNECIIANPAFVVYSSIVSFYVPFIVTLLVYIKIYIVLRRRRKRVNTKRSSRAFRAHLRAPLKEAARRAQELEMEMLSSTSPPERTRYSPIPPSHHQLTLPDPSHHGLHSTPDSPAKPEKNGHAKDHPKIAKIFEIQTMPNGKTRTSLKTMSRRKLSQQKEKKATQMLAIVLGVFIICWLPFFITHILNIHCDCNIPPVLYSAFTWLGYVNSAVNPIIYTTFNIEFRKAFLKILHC
Chain of Val91^2.61Ala D2LR (P14416 whole entry V91A): as the sequence (P14416 whole entry) above, with V91A counted along it

With `CC(=O)N[C@H]1CC[C@H](CCN2CCc3ccc(C#N)cc3C2)CC1` [MIPS1059, N-((trans)-4-(2-(7-cyano-3,4-dihydroisoquinolin-2(1H)yl)ethyl)cyclohexyl)acetamide], in assay [1], the Kb is 23.4 nM. Also, the “Schild Slope” value in assay [1] (pERK1/2, probe ligand dopamine) worked out at 1.06 ± 0.04.

`N#Cc1ccc2c(c1)CNCC2` [THIQ7C, 1,2,3,4-tetrahydroisoquinoline-7-carbonitrile] had a Kb in assay [1] (setting [5]) of 2510 nM. The compound also displayed a Logαβ in assay [1] (pERK1/2) of 1.03 ± 0.18. Moreover, in assay [1] (pERK1/2, probe ligand dopamine), the “fold lower affinity than SB269652” value came to 17 fold.

As to `CCCN1CCc2ccc(C#N)cc2C1` [MIPS1071, 2-propyl-1,2,3,4-tetrahydroisoquinoline-7-carbonitrile], the Kb in assay [1] (KB, pERK1/2, probe ligand S-3PPP) is 363 nM; in assay [1] (KB, pERK1/2, probe ligand aripiprazole), 575 nM; in assay [1] (setting [5]), 380 nM. This compound also came in with a Logαβ in assay [1] (pERK1/2) of 1.00 ± 0.08. Further, the “Schild Slope” value in assay [1] (pERK1/2, probe ligand S-3PPP) was 1.11 ± 0.18; in assay [1] (pERK1/2, probe ligand aripiprazole), 0.94 ± 0.18.

For the compound `N#Cc1ccc2c(c1)CCN(CC[C@H]1CC[C@@H](NC(=O)c3cc4ccccc4[nH]3)CC1)C2` [MIPS1217], the Kb in assay [2] was 195 nM; at Val91^2.61Ala D2LR it was 891 nM.

In the case of `CCN1CCCC1CNC(=O)c1cc(S(N)(=O)=O)ccc1OC` (stereo not drawn) [sulpiride], the “extent of antagonism of dopamine” value in assay [3] is on record as “completely antagonized”; in assay [4] it was “completely inhibited”.
